Data as given in ChEMBL document CHEMBL3352147, “Synthesis and structure-activity relationship of 4-azaheterocycle benzenesulfonamide derivatives as new microtubule-targeting agents” (Bioorg Med Chem Lett, 2014).
Activity calls are given as the source filed them. The calls are words filed in the database; no cut-off is given here.

Assays:
Jurkat = assay: Antiproliferative activity against human Jurkat cells assessed as inhibition of cell proliferation at 10 uM by MTT assay; type: functional
HepG2 = assay: Antiproliferative activity against human HepG2 cells assessed as inhibition of cell proliferation by MTT assay; type: functional, cell-based
A549 = assay: Antiproliferative activity against human A549 cells assessed as inhibition of cell proliferation at 10 uM by MTT assay; type: functional
[1] = Antiproliferative activity against human HCT116 cells assessed as inhibition of cell proliferation by MTT assay; type: functional, cell-based; details: HCT-116
[2] = Antiproliferative activity against human PC3 cells assessed as inhibition of cell proliferation by MTT assay; type: functional, cell-based; details: PC-3
[3] = Antiproliferative activity against human BGC823 cells assessed as inhibition of cell proliferation at 10 uM by MTT assay; type: functional; details: BGC-823
[4] = Antiproliferative activity against HEK293T cells assessed as inhibition of cell proliferation at 10 uM by MTT assay; type: cell-based, HEK-293T; details: human
[5] = Antiproliferative activity against human SKOV3 cells assessed as inhibition of cell proliferation by MTT assay; type: functional, cell-based; details: SK-OV-3
[6] = target: T1, Tubulin alpha (Homo sapiens) (UniProt P0DPH7+P68366+Q71U36+P68363+Q9BQE3+Q6PEY2+A6NHL2+Q9NY65); assay: Inhibition of tubulin alpha in human LoVo cells assessed as effect on tubulin intensity level at 20 nM; type: cell-based
[7] = target: T1, Tubulin alpha (Homo sapiens); assay: Inhibition of tubulin alpha in human LoVo cells assessed as effect on tubulin intensity level at 100 nM; type: cell-based
[8] = target: T1, Tubulin alpha (Homo sapiens); assay: Inhibition of tubulin alpha in human LoVo cells assessed as effect on microtubule spindles at 20 nM after 24 hrs; type: cell-based
[9] = target: T1, Tubulin alpha (Homo sapiens); assay: Inhibition of tubulin alpha in human LoVo cells assessed as effect on microtubule spindles at 100 nM after 24 hrs; type: cell-based

Row | SMILES | inhibition at 10 µM (Jurkat) [%] | IC50 (HepG2) [nM] | inhibition at 10 µM (A549) [%] | IC50 [1] [nM] | IC50 [2] [nM] | inhibition at 10 µM [3] [%] | inhibition at 10 µM [4] [%] | IC50 [5] [nM] | inhibition [6] | inhibition [7] | inhibition [8] | inhibition [9]
1 | O=c1[nH]n(S(=O)(=O)c2ccc(-c3cnc(C4CC4)o3)cc2)c2ccccc12 | 94.7 | 1010 | 66.5 | 812 | 1460 | 83.7 | 80.9 | 474 |  |  |  | 
2 | O=S(=O)(c1ccc(-c2cnc(C3CC3)o2)cc1)n1ccc2ccccc21 | 13.9 |  | 77.6 |  |  | 37.9 | 10.9 |  |  |  |  | 
3 | O=S(=O)(c1ccc(-c2cnc(C3CC3)o2)cc1)N1CCCCC1 |  | > 100000 |  | > 100000 | > 100000 |  |  | > 100000 |  |  |  | 
4 | O=[N+]([O-])c1ccc2c(c1)N(S(=O)(=O)c1ccc(-c3cnc(C4CC4)o3)cc1)CC2 | 96.7 | 273 | 50.3 | 181 | 14 | 97.7 | 77.8 | 114 |  |  |  | 
5 | CCc1ncc(-c2ccc(S(=O)(=O)N3CCc4ccccc43)cc2)o1 |  | > 100000 |  | 309 |  |  |  | 154 |  |  |  | 
6 | C=Cc1ncc(-c2ccc(S(=O)(=O)N3CCc4ccccc43)cc2)o1 |  | 25800 |  | 1330 |  |  |  | 1130 |  |  |  | 
7 | O=[N+]([O-])c1ccc2c(c1)CCN2S(=O)(=O)c1ccc(-c2cnc(C3CC3)o2)cc1 | 92.4 | 1650 | 73.1 | 1190 | 1920 | 87.5 | 48.4 | 1300 |  |  |  | 
8 | O=S(=O)(c1ccc(-c2cnc(C3CC3)o2)cc1)N1CCc2cc(F)ccc21 | 24.3 |  | 36.1 |  |  | 18.3 | 25.7 |  |  |  |  | 
9 | N#Cc1ccc2c(c1)CCN2S(=O)(=O)c1ccc(-c2cnc(C3CC3)o2)cc1 | 15.8 |  | 28.4 |  |  | 29.6 | 37.4 |  |  |  |  | 
10 | O=S(=O)(c1ccc(-c2cnc(C3CC3)o2)cc1)N1CCc2ccc(Cl)cc21 | 95.5 | 248 | 63.6 | 255 | 138 | 87.4 | 71.9 | 144 |  |  |  | 
11 | CS(=O)(=O)c1ccc2c(c1)CCN2S(=O)(=O)c1ccc(-c2cnc(C3CC3)o2)cc1 | 13 |  | 4.14 |  |  | 28.3 | 6.54 |  |  |  |  | 
12 | O=S(=O)(c1ccc(-c2nnc(C3CC3)o2)cc1)N1CCc2ccccc21 | 31.7 |  | 63.7 |  |  | 27.7 | -13.8 |  |  |  |  | 
13 | O=S(=O)(c1ccc(-c2cnc(C3CC3)s2)cc1)N1CCc2ccccc21 | 29.8 |  | -10.1 |  |  | 38.5 | -15.4 |  |  |  |  | 
14 | Cc1ccc2c(c1)CCN2S(=O)(=O)c1ccc(-c2cnc(C3CC3)o2)cc1 | 91.1 | 295 | 63.4 | 233 | 189 | 79.1 | 74.7 | 201 |  |  |  | 
15 | O=S(=O)(c1ccc(-c2cnc(C3CC3)o2)cc1)N1CC2(CCCCC2)c2ccccc21 | 94.8 | 13600 | 58.4 | 6130 | 6580 | 84.1 | 76 | 5200 |  |  |  | 
16 | O=S(=O)(c1ccc(-c2cnc(C3CC3)o2)cc1F)N1CCc2ccccc21 |  | 18700 |  | 168 |  |  |  | 139 |  |  |  | 
17 | O=S(=O)(c1ccc(-c2cnc(C3CC3)o2)cc1Cl)N1CCc2ccccc21 |  | 2180 |  | 422 |  |  |  | 220 |  |  |  | 
18 | O=S(=O)(c1ccc(-c2cnc(C3CC3)o2)cc1)N1CCCc2ccccc21 |  |  |  |  |  |  |  |  | Active | Active | Active | Active
19 | COc1ccc2c(c1)CCN2S(=O)(=O)c1ccc(-c2cnc(C3CC3)o2)cc1 |  | 55 |  | 112 | 82 |  |  | 39 | Active | Active | Active | Active
20 | CC1Cc2ccccc2N1S(=O)(=O)c1ccc(-c2cnc(C3CC3)o2)cc1 (stereo unspecified) | 89.9 | 16800 | 52.4 | 14400 | 20500 | 81.8 | 61.3 | 12400 |  |  |  | 
21 | O=S(=O)(c1ccc(-c2cnc(C3CC3)o2)cc1)N1CCc2ccccc21 |  | 58 |  | 105 | 62 |  |  | 55 | Active | Active | Active | Active
